From PMC11310889, “Ribosomal translation of fluorinated non-canonical amino acids for de novo biologically active fluorinated macrocyclic peptides” (Chemical Science, 2024)

How the values were obtained:
E. coli W3110 [1] = assay: Scanning electron microscopy of cell morphology; format: cell-based, Escherichia coli; conditions: E. coli W3110 logarithmic-phase, 4 h treatment at 2 μM and 5 μM (Fig. 5B, S11)
Procedure: Thaw the previously preserved E. coli W3110 cells from the -80 °C freezer. […]
Scanning electron microscopy
Thaw the previously preserved E. coli W3110 cells from the -80°C freezer. Scrape a small amount and inoculate it into 1 mL of LB liquid medium. Incubate overnight in a 37°C shaker. The next day, inoculate the strain into fresh LB liquid medium at a 1:100 ratio and incubate at 37°C until the OD600 reaches approximately 0.47 to 0.53. Take 500 μL of E. coli W3110 cells, centrifuge for 10 min at 4000 rpm, and discard the supernatant. Resuspend the cells in 500 μL of PBS, then centrifuge again at 4000 rpm for 10 min and discard the supernatant. Dissolve various macrocyclic peptides in DMSO and dilute to the required concentration. Resuspend the untreated group in 500 μL of PBS.
For the peptide treatment group, resuspend in 495 μL of ddH2O, add 5 μL of 0.2 mM or 0.5 mM peptides, mix well, and let react for 4 h.
After the treament, spot 4 μL of the sample on plates. Perform the first ten-fold dilution and mix, then continue with the second to fifth ten-fold dilutions. Incubate the plates inverted overnight in a 37°C incubator. Scan and count the colonies. For the remaining 492 μL, centrifuge at 6100g for 10 min, discard the supernatant, add 500 μL of ddH2O, and let it stand for 15 min. Centrifuge again at 6100g for 10 min, discard the supernatant, and add 500 μL of ddH2O containing 2.5% glutaraldehyde. Resuspend and fix the cells overnight at 4°C. Centrifuge at 6100g for 10 min, remove the supernatant, and wash twice with ddH2O, letting it stand for 15 min each time, followed by centrifugation at 6100g for 10 min. Discard the supernatant. Dehydrate the sample with ethanol at concentration gradients of 30%, 60%, and 90%, without resuspension, centrifuging at 6100g for […]
10 min and discarding the supernatant after each step. Finally, use 100% ethanol, rest for 15 min, centrifuge at 6100g for 10 min, discard the supernatant, and repeat with 100% ethanol, leaving about 10 μL. Then the critical point was dried and sprayed with gold, and the images were observed by […]
Prediction of binding sites between peptides and the BAM complex
Firstly, the fpocket algorithm was used, a rapid method for pocket prediction based on the three-dimensional structure of BAM complex (PDB ID: 5AYW). This method establishes a grid surrounding the protein, positioning alpha spheres on grid points devoid of spatial conflicts with protein atoms, subsequently utilizing a clustering algorithm to ascertain whether these regions constitute potential binding pockets. Alpha spheres were designated with radii ranging from 3.4Å to 6.2Å, with a prerequisite of at least 15 alpha spheres for a region to be considered a pocket. […]
PepNN evaluated each amino acid for its potentiality as a peptide binding site. […]

E. coli W3110 [2] = assay: Evaluation of R9-conjugated macrocyclic peptides against E. coli W3110 (survival, CFU); format: cell-based, Escherichia coli; conditions: E. coli W3110 logarithmic-phase, 5 μM peptide, 15 min treatment (Fig. 4B)
Procedure: the samples were centrifuged at 1000 rpm for 10 min，and take pictures of the pellet after centrifugation. Then, the supernatant from each sample was absorbed into the 96-well plate to ensure that there could be no air bubbles in each hole. The absorbance of the supernatant at the wavelength of 545 nm was measured by microplate reader, and the percentage of hemolysis of each […]
Percentage of hemolysis = 100%OD-OD×
Evaluation of R9-conjugated macrocyclic peptides against Gram-negative pathogens Remove the previously preserved E. coli W3110 cells from the -80 °C refrigerator, scrape a little, inoculate it into 1 mL LB liquid medium, and culture overnight in 37 °C shaker. The strain was inoculated into fresh LB liquid medium according to the inoculation ratio of 1:100 and incubated at 37 ℃ until the OD600 reached about 0.47~0.53. First, 100 μL E. coli W3110 cells was taken, then centrifuged for 2 minutes at 13000 rpm, then the supernatant was absorbed and discarded, and then the cells were resuspended with 100 μL PBS solution, followed by 13000 rpm centrifugation for two minutes. Various fluorinated macrocyclic peptides conjugated with R9 were dissolved in DMSO and then diluted to the required concentration. […] Finally, the plate was scanned and counted. […]

Substance	morphological changes by scanning electron microscopy (E. coli W3110 [1])	eradication of E. coli bacteria (E. coli W3110 [2])
Ac-(4-F-DPhe)KHFIY(4-F-β-Phe)YRSPICGS(Acp)RRRRRRRRR-NH2 (sidechain bridge or staple) [BAM-β3-R9, BAM-β3 conjugated with cell-penetrating peptide R9]	severe damage in the cell shape and even lysis	over 99.9%
Ac-(4-F-DPhe)IWHKSLT(4-F-DPhe)NYLHTCGS(Acp)RRRRRRRRR-NH2 (sidechain bridge or staple) [BAM-f2-R9, BAM-f2 conjugated with cell-penetrating peptide R9]	severe damage in the cell shape and even lysis	over 99.9%
